Data set [1] deals with T1, GmSAMT1 (Glycine max, UniProt B5A7G5).
T1 sequence (B5A7G5 1-370): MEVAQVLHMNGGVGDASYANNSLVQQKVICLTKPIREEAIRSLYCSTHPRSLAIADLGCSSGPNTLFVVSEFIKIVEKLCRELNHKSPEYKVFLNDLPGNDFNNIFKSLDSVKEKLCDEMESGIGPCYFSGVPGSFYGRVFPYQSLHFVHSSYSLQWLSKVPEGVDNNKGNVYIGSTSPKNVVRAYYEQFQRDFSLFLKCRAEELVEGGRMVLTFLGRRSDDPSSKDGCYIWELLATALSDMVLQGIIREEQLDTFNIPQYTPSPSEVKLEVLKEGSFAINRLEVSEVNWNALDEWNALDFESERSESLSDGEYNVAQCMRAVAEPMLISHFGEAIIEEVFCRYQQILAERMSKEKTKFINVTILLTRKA
In words: Radiochemical SAMT activity assay, substrate specificity of recombinant GmSAMT1. The class given is biochemical, soybean. As to conditions: all substrates at 1 mM, activity with salicylic acid set at 100%, average of three measurements. The method, then:
(§1) A 50 μl volume containing 50 mM Tris-HCl, pH 7.5, 1 mM SA, and 3 μM ^14C-SAM with a specific activity of 51.4 mCi/mmol (Perkin-Elmer, Boston, Mass.) was used. The assay was initiated by addition of SAM, maintained at 25° C. for 30 min, and stopped by the addition of ethyl acetate (150 μl). After phase separation by 1 min centrifugation at 14,000 g, the upper organic phase was counted using a liquid scintillation counter (Beckman Coulter, Fullerton, Calif.). The radiation counts in the organic phase indicated the amount of synthesized MeSA. Substrate specificity assay was also performed for recombinant GmSAMT1, with a range of substrates including SA, benzoic acid, anthranilic acid, 3-hydroxybenzoic acid, 4-hydroxybenzoic acid, nicotinic acid, p-coumaric acid, caffeic acid, cinnamic acid, vanallic acid, jasmonic acid (JA), gibberellic acid, indole-3-acetic acid, and 2,4-dichlorophenoxyacetic acid. The activity with SA was set at 100%. Three independent assays were performed for each compound.

Data set [2] concerns the target T1, GmSAMT1. The data set is described as follows: Effects of metal ions on activity of GmSAMT1. The class given is biochemical, soybean. The settings on record: chloride salts at 5 mM final concentration; control without metal ion set at 1.0. The method, then:
as §1
Appropriate enzyme concentrations and incubation time were determined in time course assays to make sure that the reaction velocity was linear during the assay period. Lineweaver-Burk plots yielded apparent Km values. To determine the Km for SA, concentrations of SA were independently varied from 2 to 150 μM, while SAM was held constant at 200 μM. Assays were conducted at 25° C. for 30 min, as described in SAMT activity assay. The optimal pH for GmSAMT1 was assayed from pH 6.0 to pH 9.0, and optimal reaction of temperature was assayed ranging from 0° C. to 60° C. Effects of metal ions on activity of GmSAMT1 were assayed with a range of metal ions, including K^+, Cu^2+, Zn^2+, Fe^2+, Fe^3+, Mn^2+, Ca^2+, Na^+, NH4^+, and Mg^2+, in the form of chloride salts at 5 mM final concentrations.

For another data set, the system named is SCN race 2. In words: Nematode infection and demographics assay in transgenic soybean hairy roots. The class given is in vivo, Heterodera glycines. As to conditions: TN02-275 background; susceptibility of vector control in susceptible background set at 100%. An excerpt: The soybean hairy root transformation system by infection with A. rhizogenes harboring the target genes were modified and used to study soybean resistance against SCN. A. rhizogenes K599 harboring the target gene, vector control and A. rhizogenes K599 alone were used to inoculate the TN02-275 soybeans, which are susceptible to SCN race 2. To better evaluate the resistance of the target gene, A. rhizogenes harboring the vector control and A. rhizogenes K599 alone were also used to inoculate the TN02-226 soybeans, which are resistant to SCN race 2. Generation of soybean hairy roots was modified as follows: First, soybean seeds were sterilized with chlorine gas. Second, a single layer of mature soybean seeds with intact seed coats were placed in open Petri dish, which was put in a bell jar desiccator within a fume hood. A beaker with 100 ml bleach was also placed in the desiccator and added 5 ml concentrated (12N) HCl along the side of the beaker. Then the seeds were kept in the closed desiccator immediately and maintained in the chlorine gas atmosphere overnight (about 16 h). After sterilization, seeds were transferred to the autoclaved filter paper moistened with sterilized distilled water in the Petri dishes for germination in a laminar flow hood. The germinated soybean seeds were sowed in sterilized vermiculite and six seeds were grown in each cell of 18-cell germination tray. The overnight cultured bacteria lawn of A. rhizogenes K599 with binary vector pJL-OFP, pJL-OFP-35S::GUS or pJL-OFP-35S::GmSAMT1 from LB medium plate containing […] kanamycin, or a culture of A. rhizogenes K599 lacking the binary vector grown in LB medium without any antibiotics was collected and suspended in 1 ml of sterile distilled water, respectively. Soybean cotyledonary nodes and upper hypocotyls of 5-day-old seedlings with unfolded cotyledons were stabbed three times by the syringe containing the bacterial suspension. In the first week, the trays were covered with the sterile transparent lids to retain high humidity. In the subsequent three weeks, plants were transferred into pots and the A. rhizogenes wounding sites were covered by wet sterile vermiculite to continually keep high humidity. Each day soybean plants were watered using sterile B&D solution containing 1 mM CaCl2, 0.5 mM KH2PO4, 10 μM Fe-citrate, 0.25 mM MgSO4, 0.25 mM K2SO4, 1 μM MnSO4, 2 μM H3BO4, 0.5 μM ZnSO4, 2 μM CuSO4, 0.1 μM CoSO4, 0.1 μM Na2MoO4, and 1 mM KNO3. The growth conditions for soybean plants were 12 h light/12 h dark at 28° C./25° C. with irradiance from fluorescent bulbs at 150-200 μmol m^−2·s^−1. After about four weeks, the hairy roots grew to approximately 10 cm in length. Soybean transgenic roots were detected based on OFP expression, using a fluorescence stereomicroscope (Olympus SZX12 fluorescence microscope and OFP filter). The tap root and non-transgenic roots were excised under the wounding site. Transgenic roots harboring pJL-OFP-35S::GUS screened by OFP signal were immersed in GUS solution (1 mM X-Gluc), 0.5 mM potassium ferrocyanide, 0.1% (v/v) TRITON™ X-100, 100 mM sodium phosphate buffer pH 7.0), and incubated at 37° C. overnight. In the following day, the X-Gluc solution was discarded. The roots were washed repeatedly with 70% ethanol to remove chlorophyll. Transgenic roots with visual GUS stain were recorded.
To easily compare the SCN infection, one transgenic root was left for the SCN inoculation. […]

Consider `O=C(O)COc1ccc(Cl)cc1Cl` [2,4-Dichlorophenoxyacetic acid, 2,4-dichlorophenoxyacetic acid], for which the “Relative activity of GmSAMT1 with substrate” value (from here on “Relative activity of GmSAMT1”) on GmSAMT1 [1] is given as 0%.

On to `O=C(O)c1cccc(O)c1` [3-Hydroxybenzoic acid, 3-hydroxybenzoic acid], for which the “Relative activity of GmSAMT1” value at GmSAMT1 [1] is listed as 1.8%.

As to `O=C(O)c1ccc(O)cc1` [4-Hydroxybenzoic acid, 4-hydroxybenzoic acid], the “Relative activity of GmSAMT1” value on GmSAMT1 [1] is on record as 0%.

As for `Nc1ccccc1C(=O)O` [Anthranilic acid, anthranilic acid], the “Relative activity of GmSAMT1” value at GmSAMT1 [1] stood at 9.3%.

As for `O=C(O)c1ccccc1` [Benzoic acid, benzoic acid], the “Relative activity of GmSAMT1” value at GmSAMT1 [1] came to 16.9%.

Consider `[Ca+2].[Cl-].[Cl-]` [Ca^2+], for which, at GmSAMT1 [2], the “effect of metal ion on GmSAMT1 activity compared with control” value (shortened to “effect … compared with control”) was “moderately inhibited”.

Consider `O=C(O)/C=C/c1ccc(O)c(O)c1` [Caffeic acid, caffeic acid], for which the “Relative activity of GmSAMT1” value at GmSAMT1 [1] is recorded as 0%.

`O=C(O)C=Cc1ccccc1` [Cinnamic acid, cinnamic acid]: at GmSAMT1 [1], the “Relative activity of GmSAMT1” value was determined as 0%.

Turning to `[Cl][Cu][Cl]` [Cu^2+], the “effect … compared with control” value at GmSAMT1 [2] is reported as “no activity”.

As to `[Cl][Fe][Cl]` [Fe^2+], the “effect … compared with control” value on GmSAMT1 [2] is listed as “no activity”.

Take `C=C1C[C@]23C[C@@]1(O)CC[C@H]2[C@@]12C=C[C@H](O)[C@@](C)(C(=O)O1)[C@H]2[C@@H]3C(=O)O` [Gibberellic acid, gibberellic acid]: the “Relative activity of GmSAMT1” value is on record as 0% on GmSAMT1 [1] and “no activity was detected” on GmSAMT1 [1] (listed as gibberellic acid).

As to `O=C(O)Cc1c[nH]c2ccccc12` [Indole-3-acetic acid, indole-3-acetic acid], the “Relative activity of GmSAMT1” value on GmSAMT1 [1] is reported as 0%; on GmSAMT1 [1] (listed as indole-3-acetic acid), “no activity was detected”.

With `CC/C=C\C[C@H]1C(=O)CC[C@@H]1CC(=O)O` [Jasmonic acid, jasmonic acid], the “Relative activity of GmSAMT1” value on GmSAMT1 [1] is listed as 0%; at GmSAMT1 [1] (listed as JA), “no activity was detected”.

On to `[Cl-].[K+]` [K], for which the “effect … compared with control” value on GmSAMT1 [2] was “double activity”.

`[Cl-].[Cl-].[Mg+2]` [Mg^2+]: the “effect … compared with control” value on GmSAMT1 [2] is given as “minimal effect”.

On to `[Cl][Mn][Cl]` [Mn^2+], for which, on GmSAMT1 [2], the “effect … compared with control” value was “moderately inhibited”.

With `Cl.N` [NH4^+], the “effect … compared with control” value at GmSAMT1 [2] was “minimal effect”.

For `[Cl-].[Na+]` [Na^+], the “effect … compared with control” value at GmSAMT1 [2] is listed as “minimal effect”.

Take `O=C(O)c1cccnc1` [Nicotinic acid, nicotinic acid]: the “Relative activity of GmSAMT1” value on GmSAMT1 [1] is listed as 0%.

For the molecule `O=C(O)c1ccccc1O` [Salicylic acid, salicylic acid], the “Relative activity of GmSAMT1” value at GmSAMT1 [1] came out at 100%.

For the molecule `COc1cc(C(=O)O)ccc1O` [Vanallic acid, vanallic acid], the “Relative activity of GmSAMT1” value on GmSAMT1 [1] is listed as 0%.

Consider `[Cl-].[Cl-].[Zn+2]` [Zn^2+], for which the “effect … compared with control” value on GmSAMT1 [2] is reported as “no activity”.

Take `O=C(O)/C=C/c1ccc(O)cc1` [p-Coumaric acid, p-coumaric acid]: on GmSAMT1 [1], the “Relative activity of GmSAMT1” value came to 0%.

B1: GmSABP2-1: soybean methyl salicylate esterase gene (SEQ ID NO: 2), over-expressed in transgenic hairy roots (nucleic acid)
DNA: ATGGGTTCACAAAATTGTATGGATAGGAAGCACTATGTTCTGGTGCATGGGGCATGCCATGGAGCTTGGTGTTGGTATAAGCTCAAGCCACGCTTGGAATCTGCAGGCCATAAGGTCACAGTACTTGACCTTGCAGCTTCTGGAACCAACATGAAGAAAATTGAAGATGTTGATACTTTCTCAGAGTATTCTGCGCCTTTGTTGCAGCTAATGGCCACAATTCCCTCAAATGAGAAGTTAGTTCTAGTTGGTCACAGCCTTGGAGGGCTGAACATAGCACTTGCAATGGAGAAATTCCCAGAAAAGGTAGCAGTTGGTGTTTTCTTAACAGCTTTTGCTCCAGACACTGAACACCACCCATCTTATGTCTTGGAAAAGTACAATGAGAGGACCCCGTTAGCTGCATGGTTAGACACTGAATTTGCTCCAAGCGGAAACAAAACATCAATGTTCTTCGGCCCCAACTTCTTGTCCGACAAGCTCTACCAACTGTCCCCTATTGAGGACTTGGAATTGGCCAAGACTTTAGCAAGGCCATCATCGCTCTTCATGGAAGACTTGACTAAACAAAAGAACTTCTCCAAAGAGGGATATGGGTCAGTTCCACGTGCCTTTATTGTTTGCACGGAGGACCTTGGAATTCCATTGGAATATCAGCTCTTGATGATCCAAAATGTTGGGTTCAATGACGTTGTAGAGGTCAAAGACGCAGATCATATGGTTATGCTTTGCAAGCCACAAGAACTATTCGATTCCCTCCAGCAGATAGCGACTAAATATGCATGA
modifications: Glycine Max
The molecule B1 had a reduction of susceptibility in the data set on SCN race 2 of 84.5%.

The values are drawn from patent publication US20140366219A1, “Increasing Soybean Defense Against Pests” (priority 2011, published 2014).
